In the assay the test system is TKp53^L/Lp16^L/L melanoma cells. Briefly: in vitro scratch (wound healing) assay with dasatinib. The class given is cell-based, murine. To be noted: 30 nM dasatinib, 12 hours after wounding. The procedure:
FIG. 4C is a bar graph of closure index for TKp53^L/Lp16^L/L melanoma cells with LKB1 knockdown treated with vehicle (shLkb1+DMSO) or 30 nM dasatinib (shLkb1+Dasatinib) and for TKp53^L/Lp16^L/L melanoma cells without Lkb1 knockdown treated with vehicle (NS+DMSO) or 30 nM dasatinib (NS+Dasatinib). Closure index was measured 12 hours after wounding. The asterisks indicate a significant difference (P<0.05).
The in vitro scratch (wound healing) assay was performed as described previously. See Carretero et al., 2010. Briefly, a 1 mm wide scratch was made on a confluent monolayer, and cells were then allowed to grow under standard conditions for 12 hours. The migrated distance was quantified using Image J™ software. “Close Index” was determined as 1-f, where f is calculated as the remaining gap area divided by the starting scratched area. Cell invasion was measured using matrigel invasion assay using invasion chambers obtained from BD Biosciences (San Jose, Calif., United States of America), with assays performed according to the manufacturer's instructions. Cells of the indicated genotypes (2.5×10^4) were added to the upper chamber in 500 uL of serum-free medium, and the lower chamber was filled with 750 uL of medium containing 10% fetal bovine serum (FBS) as an attractant. After 24 hours of incubation, cells on the underside of the filter were fixed, stained and counted. […]

With `Cc1nc(Nc2ncc(C(=O)Nc3c(C)cccc3Cl)s2)cc(N2CCN(CCO)CC2)n1` [dasatinib], the “decrease in cell migration (closure index)” value (Lkb-intact melanoma cells (NS)) stood at 14% and the “decrease in cell migration (closure index)” value (melanoma cells with Lkb1 knockdown (shLkb1)) is reported as 27%.

The values above are taken from patent US20140378469A1, “LKB1/STK11 DELETION IN MELANOMA AND RELATED METHODS” (The University of North Carolina at Chapel Hill, priority 2012, published 2014).
